The source of these data is patent US20050261332A1, “Sulfonamides and uses thereof” (priority 2004, published 2005).

T1 sequence (Q92847 whole entry, species assumed): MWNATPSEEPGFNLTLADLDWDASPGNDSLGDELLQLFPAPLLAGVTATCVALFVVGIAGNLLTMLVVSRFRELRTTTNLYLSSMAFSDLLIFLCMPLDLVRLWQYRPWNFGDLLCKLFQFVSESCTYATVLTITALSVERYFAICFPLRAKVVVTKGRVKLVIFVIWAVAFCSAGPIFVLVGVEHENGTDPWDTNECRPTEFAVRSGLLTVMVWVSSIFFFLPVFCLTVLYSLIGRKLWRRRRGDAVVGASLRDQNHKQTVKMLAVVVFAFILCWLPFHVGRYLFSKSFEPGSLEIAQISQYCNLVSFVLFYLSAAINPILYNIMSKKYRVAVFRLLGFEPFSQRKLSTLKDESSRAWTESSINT

This assay addresses T1, GHS-R (Homo sapiens, UniProt Q92847).
T1 construct: expressed in transfected cells; host or cells: COS-7 cells
The experiment in a line: GHS-R competition binding assay (Ki of GHS-R antagonizing compounds). The procedure:
One exemplary binding assay is as follows: GHS-R expressing COS-7 cells cultured at a density of 1×10^5 cells per well so that binding is assayed in the range of about 5-8 % binding of the radioactive ligand. For example, the cells can express an endogenous nucleic acid encoding GHS-R or an exogenous nucleic acid encoding GHS-R. Cells transfected with an exogenous nucleic acid encoding GHS-R can be used, e.g., two days, after transfection. Competition binding experiments are performed for 3 hours at 4° C. using 25 pM of ^125I-ghrelin in 0.5 ml of 50 mM HEPES buffer, pH 7.4, supplemented with 1 mM CaCl2, 5 mM MgCl2, and 0.1% (w/v) bovine serum albumin, 40 mg/ml bacitracin. Non-specific binding can be determined as the binding in the presence of […] of unlabeled ghrelin. Cells are washed twice in 0.5 ml of ice-cold buffer and then lysed with 0.5-1 ml of lysis buffer (8 M Urea, 2% NP40 in 3 M acetic acid). After washing and lysis, the bound radioactivity is counted. Assays can be run in duplicate or triplicate, e.g., to provide statistical power.
Values of the dissociation and inhibition constants (Kd and Ki) can be estimated from competition binding experiments using the equation: Kd=IC50-L and Ki=IC50/(1+L/Kd), where L is the concentration of radioactive ligand. Bmax values can be estimated from competition binding experiments using the equation Bmax=B0 IC50/[ligand], where B0 is the specifically bound radioligand.
Molecule `CN1CCC(S(=O)(=O)N[C@H](COCc2ccccc2)C(=O)N2CCC3(C=Cc4ccccc43)CC2)CC1` [Compound 147, (R)-N-(3-(benzyloxy)-1-oxo-1-(spiro[indene-1,4′-piperidine]-1′-yl)propan-2-yl)-1-methylpiperidine-4-sulfonamide] yielded a Ki of 0.1 to 1 µM.

Turning to `CCN(CC)CCCS(=O)(=O)N[C@H](COCc1ccccc1)C(=O)N1CCC2(CC1)CN(S(C)(=O)=O)c1ccccc12` [Compound 148, (R)-N-(3-(benzyloxy)-1-(1-(methylsulfonyl)spiro[indoline-3,4′-piperidine]-1′-yl)-1-oxopropan-2-yl)-3-(diethylamino)propane-1-sulfonamide], the Ki lay within 0.1 to 1 µM.

In turn, `CN(C)CCCS(=O)(=O)N[C@H](COCc1ccccc1)C(=O)N1CCC2(CC1)CN(S(C)(=O)=O)c1ccccc12` [Compound 149, (R)-N-(3-(benzyloxy)-1-(1-(methylsulfonyl)spiro[indoline-3,4′-piperidine]-1′-yl)-1-oxopropan-2-yl)-3-(dimethylamino)propane-1-sulfonamide] registered a Ki of 0.1 to 1 µM.

The molecule `CS(=O)(=O)N1CC2(CCN(C(=O)[C@@H](COCc3ccccc3)NS(=O)(=O)CCCNC3CC3)CC2)c2ccccc21` [Compound 150, (R)-N-(3-(benzyloxy)-1-(1-(methylsulfonyl)spiro[indoline-3,4′-piperidine]-1′-yl)-1-oxopropan-2-yl)-3-(cyclopropylamino)propane-1-sulfonamide] yielded an inhibition constant Ki of over 1 µM.

In turn, `CS(=O)(=O)N1CC2(CCN(C(=O)[C@@H](COCc3ccccc3)NS(=O)(=O)CCCN3CCCC3)CC2)c2ccccc21` [Compound 152, (R)-N-(3-(benzyloxy)-1-(1-(methylsulfonyl)spiro[indoline-3,4′-piperidine]-1′-yl)-1-oxopropan-2-yl)-3-(pyrrolidin-1-yl)propane-1-sulfonamide] registered an inhibition constant Ki of under 0.1 µM.

As for `NC(=O)c1ccccc1-c1ccc(CNC(=O)[C@@H](COCc2ccccc2)NS(=O)(=O)CCCCl)cc1` [Compound 153, (R)-4′-{[3-Benzyloxy-2-(3-chloro-propane-1-sulfonylamino)-propionylamino]-methyl}-biphenyl-2-carboxylic acid amide], the Ki was over 1 µM.

`CCN(CC)CCCS(=O)(=O)N[C@H](COCc1ccccc1)C(=O)NCc1ccc(-c2ccccc2C(N)=O)cc1` [Compound 154, (R)-4′-{[3-Benzyloxy-2-(3-diethylamino-propane-1-sulfonylamino)-propionylamino]-methyl}-biphenyl-2-carboxylic acid amide] showed an inhibition constant (Ki) of 0.1 to 1 µM.

Regarding `CCN(CC)CCCS(=O)(=O)N[C@H](COCc1ccccc1)C(=O)NCc1ccc(-c2ccccc2-c2nnn(C(C)(C)C)n2)cc1` [Compound 155, (R)-3-Benzyloxy-N-[2′-(2-tert-butyl-2H-tetrazol-5-yl)-biphenyl-4-ylmethyl]-2-(3-diethylamino-propane-1-sulfonylamino)-propionamide], the Ki was 0.1 to 1 µM.

Consider `CCN(CC)CCCS(=O)(=O)N[C@H](COCc1ccccc1)C(=O)NCc1ccc(-c2ccccc2-c2nn[nH]n2)cc1` [Compound 156, (R)-3-Benzyloxy-2-(3-diethylamino-propane-1-sulfonylamino)-N-[2′-(2H-tetrazol-5-yl)-biphenyl-4-ylmethyl]-propionamide], for which the Ki lay within 0.1 to 1 µM.

Molecule `CN([C@H](COCc1ccccc1)C(=O)N1CCC2(CC1)CN(S(C)(=O)=O)c1ccccc12)S(=O)(=O)CCCCl` [Compound 157, (R)-N-(3-(benzyloxy)-1-(1-(methylsulfonyl)spiro[indoline-3,4′-piperidine]-1′-yl)-1-oxopropan-2-yl)-3-chloro-N-methylpropane-1-sulfonamide] displayed a Ki of 0.1 to 1 µM.

In the case of `CCN(CC)CCCS(=O)(=O)N[C@H](COCc1ccccc1)C(=O)NCc1ccc(-c2ccccc2C#N)cc1` [Compound 158, (R)-3-Benzyloxy-N-(2′-cyano-biphenyl-4-ylmethyl)-2-(3-diethylamino-propane-1-sulfonylamino)-propionamide], the Ki is under 0.1 µM.

Consider `COCCCS(=O)(=O)N[C@H](COCc1ccccc1)C(=O)N1CCC2(CC1)CN(S(C)(=O)=O)c1ccccc12` [Compound 159, (R)-N-(3-(benzyloxy)-1-(1-(methylsulfonyl)spiro[indoline-3,4′-piperidine]-1′-yl)-1-oxopropan-2-yl)-3-methoxypropane-1-sulfonamide], for which the Ki is 0.1 to 1 µM.

`CCN(CC)CCCS(=O)(=O)N(C)[C@H](COCc1ccccc1)C(=O)N1CCC2(CC1)CN(S(C)(=O)=O)c1ccccc12` [Compound 160, (R)-N-(3-(benzyloxy)-1-(1-(methylsulfonyl)spiro[indoline-3,4′-piperidine]-1′-yl)-1-oxopropan-2-yl)-3-(diethylamino)-N-methylpropane-1-sulfonamide] yielded a Ki of under 0.1 µM.

`CCN(CC)CCCS(=O)(=O)N[C@H](CCc1ccccc1)C(=O)NCc1ccc(-c2ccccc2-c2nn[nH]n2)cc1` [Compound 161, (R)-N-((2′-(2H-tetrazol-5-yl)biphenyl-4-yl)methyl)-2-(3-(diethylamino)propylsulfonamido)-4-phenylbutanamide] had a Ki of 0.1 to 1 µM.

`CCN(CC)CCCS(=O)(=O)N[C@H](COCc1ccccc1)C(=O)NCc1ccc(-c2ccccc2-c2noc(=S)[nH]2)cc1` [Compound 162, (R)-3-Benzyloxy-2-(3-diethylamino-propane-1-sulfonylamino)-N-[2′-(5-thioxo-4,5-dihydro-[1,2,4]oxadiazol-3-yl)-biphenyl-4-ylmethyl]-propionamide] registered a Ki of under 0.1 µM.

In turn, `CCN(CC)CCCS(=O)(=O)N[C@H](CCc1ccccc1)C(=O)N1CCC2(CC1)CN(S(C)(=O)=O)c1ccccc12` [Compound 163, (R)-3-(diethylamino)-N-(1-(1-(methylsulfonyl)spiro[indoline-3,4′-piperidine]-1′-yl)-1-oxo-4-phenylbutan-2-yl)propane-1-sulfonamide] came in with an inhibition constant Ki of under 0.1 µM.

On to `CCN(CC)CCCS(=O)(=O)N[C@H](COCc1ccccc1)C(=O)NCc1ccc(-c2ccccc2-c2noc(=O)[nH]2)cc1` [Compound 164, (R)-3-Benzyloxy-2-(3-diethylamino-propane-1-sulfonylamino)-N-[2′-(5-oxo-4,5-dihydro-[1,2,4]oxadiazol-3-yl)-biphenyl-4-ylmethyl]-propionamide], for which the inhibitory constant (Ki) is 0.1 to 1 µM.

Consider `CCN(CC)CCCS(=O)(=O)N[C@H](COCc1ccccc1)C(=O)N1CCC2(C=Cc3ccccc32)CC1` [Compound 165, (R)-N-(3-(benzyloxy)-1-oxo-1-(spiro[indene-1,4′-piperidine]-1′-yl)propan-2-yl)-3-(diethylamino)propane-1-sulfonamide], for which the Ki was under 0.1 µM.

Regarding `CCN(CC)CCCS(=O)(=O)N[C@H](COCc1ccccc1)C(=O)c1ccc(-c2ccccc2NC(=O)OC(C)(C)C)cc1` [Compound 166, (R)-{4′-[3-Benzyloxy-2-(3-diethylamino-propane-1-sulfonylamino)-propionyl]-biphenyl-2-yl}-carbamic acid tert-butyl ester], the Ki was over 1 µM.

As for `CCN(CC)CCCS(=O)(=O)N[C@H](CCc1ccccc1)C(=O)c1ccc(-c2ccccc2NC(=O)OC(C)(C)C)cc1` [Compound 167, (R)-tert-butyl 4′-(2-(3-(diethylamino)propylsulfonamido)-4-phenylbutanoyl)biphenyl-2-ylcarbamate], the Ki was in the range of 0.1 to 1 µM.

In the case of `CCN(CC)CCCS(=O)(=O)N[C@H](CCc1ccccc1)C(=O)c1ccc(-c2ccccc2CO)cc1` [Compound 168, (R)-3-(diethylamino)-N-(1-(2′-(hydroxymethyl)biphenyl-4-yl)-1-oxo-4-phenylbutan-2-yl)propane-1-sulfonamide], the Ki was under 0.1 µM.

In turn, `CCN(CC)CCCS(=O)(=O)N[C@H](CCc1ccccc1)C(=O)c1ccc(-c2ccccc2N)cc1` [Compound 169] registered a Ki of under 0.1 µM.

In the case of `CCN(CC)CCCS(=O)(=O)N[C@H](CCc1ccccc1)C(=O)NCc1ccc(-c2ccccc2CNC(C)=O)cc1` [Compound 170, (R)-N-((2′-(acetamidomethyl)biphenyl-4-yl)methyl)-2-(3-(diethylamino)propylsulfonamido)-4-phenylbutanamide], the Ki lay in the range of 0.1 to 1 µM.

As to `CCN(CC)CCCS(=O)(=O)N[C@H](CCc1ccccc1)C(=O)c1ccc(-c2ccccc2NC(=O)NC)cc1` [Compound 171, (R)-3-(diethylamino)-N-(1-(2′-(3-methylureido)biphenyl-4-yl)-1-oxo-4-phenylbutan-2-yl)propane-1-sulfonamide], the Ki is 0.1 to 1 µM.

Molecule `CCNC(=O)Nc1ccccc1-c1ccc(C(=O)[C@@H](CCc2ccccc2)NS(=O)(=O)CCCN(CC)CC)cc1` [Compound 172, (R)-3-(diethylamino)-N-(1-(2′-(3-ethylureido)biphenyl-4-yl)-1-oxo-4-phenylbutan-2-yl)propane-1-sulfonamide] gave a Ki of 0.1 to 1 µM.

On to `CCN(CC)CCCS(=O)(=O)N[C@H](CCc1ccccc1)C(=O)c1ccc(-c2ccccc2COC(=O)NC)cc1` [Compound 173, (R)-(4′-(2-(3-(diethylamino)propylsulfonamido)-4-phenylbutanoyl)biphenyl-2-yl)methyl methylcarbamate], for which the Ki is under 0.1 µM.
